The structures appear in SMILES notation.

Test [1] relates to K562. Briefly: Cytotoxicity on K562 cancer cell line. The class given is cell-based. The note with it: Homo sapiens; K562 chronic myelogenous leukemia; 96 h; 0.01-100 μM. The protocol: (§1) The effect of the compounds described herein on tumor cells was determined by the assay described by Latham et al., Oncogene 12:827-837 (1996). Tumor cells K562 (chronic myelogenous leukemia; leukemia cell line +ve for Bcr-Abl) or DU145 (prostate cancer) were plated in 12-well dishes at a cell density of 2.5×10^4 cells per well. The plated cells were treated 24 h. later with a DMSO solution of a compound as described herein at multiple concentrations ranging from 0.01 μM to 100 μM. The plates were examined 96 h. later under an inverted microscope, Olympus CK-2 using a 10× objective, and compound activity was noted by physical observation. When necessary, the total number of viable cells was determined by trypsinizing the wells and counting the number of viable cells, as determined by trypan blue exclusion, using a hemacytometer.

Test [2] concerns DU145. Briefly: Cytotoxicity on DU145 cancer cell line. The class given is cell-based. The settings on record: Homo sapiens, DU-145; DU145 prostate cancer; 96 h; 0.01-100 μM. The protocol: as §1

As for `CNc1nc(Nc2cc(OC)c(OC)c(OC)c2)ncc1/C=C/S(=O)(=O)c1ccc(F)cc1F` [Compound 15g, (E)-5-{2-[(2,4-Difluorophenyl)sulfonyl]vinyl}-N^4-methyl-N^2-(3,4,5-trimethoxyphenyl)pyrimidine-2,4-diamine], the results for the IC50 in test [1] and in test [2] were 50000 to 100000 nM and 1000 to 25000 nM, respectively.
In the same order, the values of `CNc1nc(Nc2ccc3[nH]ccc3c2)ncc1/C=C/S(=O)(=O)c1ccc(F)cc1F` [Compound 15a, 5-{2-[2,4-(Difluorophenyl)sulfonyl]vinyl}-N^2-(1H-indol-5-yl)-N^4-methylpyrimidine-2,4-diamine] are 1000 to 25000 nM and 1000 to 25000 nM.
For `Cn1ccc(Nc2nc(Nc3ccc(N4CCOCC4)cc3)ncc2/C=C/S(=O)(=O)c2ccc(F)cc2F)n1` [Compound 15t, (E)-5-{2-[(2,4-Difluorophenyl)sulfonyl]vinyl}-N-(1-methyl-1H-pyrazol-3-yl)-N^2-(4-morpholinophenyl)pyrimidine-2,4-diamine] the same measures were 1000 to 25000 nM and 1000 to 25000 nM.
In the same order, the values of `CNc1nc(Nc2ccc3[nH]cnc3c2)ncc1/C=C/S(=O)(=O)c1ccc(F)cc1F` [Compound 15n, (E)-N^2-(1H-Benzo[d]imidazol-5-yl)-5-{2-[(2,4-difluorophenyl)sulfonyl]vinyl}-N^4-methylpyrimidine-2,4-diamine] are 1000 to 25000 nM and 1000 to 25000 nM.
Consider `CNc1nc(Nc2ccc(OC)cc2)ncc1/C=C/S(=O)(=O)c1ccc(F)cc1F` [Compound 15f, (E)-5-{2-[(2,4-Difluorophenyl)sulfonyl]vinyl}-N^2-(4-methoxyphenyl)-N^4-methylpyrimidine-2,4-diamine], for which the IC50 in test [1] and in test [2] was 25000 to 50000 nM each time.
On to `COc1ccc(S(=O)(=O)/C=C/c2cnc(N3CCOCC3)nc2NC2CCCC2)cc1` [Compound 15o, (E)-N-Cyclopentyl-5-{2-[(4-methoxyphenyl)sulfonyl]vinyl}-2-morpholinopyrimidin-4-amine], for which the IC50 in test [1] and in test [2] was 1000 to 25000 nM each time.
For the compound `CCN1CCN(c2ccc(Nc3ncc(/C=C/C#N)c(NCC4CC4)n3)cc2)CC1` [Compound 8t, 3-{4-[(Cyclopropylmethyl)amino]-2-[4-(4-ethylpiperazin-1-yl)phenylamino]pyrimidin-5-yl}acrylonitrile], the IC50 in test [1] and in test [2] was under 1000 nM in each case.
For the compound `CNc1nc(Nc2nc3ccccc3[nH]2)ncc1/C=C/S(=O)(=O)c1ccc(F)cc1F` [Compound 15h, (E)-N^2-(1H-Benzo[d]imidazol-2-yl)-5-{2-[(2,4-difluorophenyl)sulfonyl]vinyl}-N^4-methylpyrimidine-2,4-diamine], the IC50 in test [1] and in test [2] was 1000 to 25000 nM throughout.
For the compound `COc1ccc(Nc2ncc(/C=C/C#N)c(NCC3CC3)n2)cc1` [Compound 8s], the IC50 in test [1] and in test [2] was 1000 to 25000 nM each time.
Regarding `CN1CCN(c2ccc(Nc3ncc(/C=C/C#N)c(NC4CCCCC4)n3)cc2)CC1` [Compound 8i, 3-{4-Cyclohexylamino-2-[4-(4-methylpiperazin-1-yl)phenylamino]pyrimidin-5-yl}acrylonitrile], the IC50 was under 1000 nM in test [1] and 1000 to 25000 nM in test [2].
Take `N#C/C=C/c1cnc(NCc2ccccc2)nc1NC1CCCC1` [Compound 8p, 3-[2-(Benzylamino)-4-(cyclopentylamino)pyrimidin-5-yl]acrylonitrile]: the IC50 in test [1] and in test [2] was 25000 to 50000 nM each time.
In the case of `CCN1CCN(c2ccc(Nc3ncc(/C=C/C#N)c(NC4CCCC4)n3)cc2)CC1` [Compound 8o, 3-{4-Cyclopentylamino-2-[4-(1-ethylpiperazin-4-yl)-phenylamino]-pyrimidin-5-yl}acrylonitrile], the IC50 in test [1] and in test [2] was under 1000 nM each time.
As for `CCOC(=O)/C=C/c1cnc(Nc2ccc(N3CCN(C)CC3)cc2)nc1NC1CCCC1` [Compound 21, (E)-3-[4-(Cyclopentylamino)-2-{[4-(4-methylpiperazin-1-yl)phenyl]amino}pyrimidin-5-yl]acrylic acid ethyl ester], the figures for the IC50 in test [1] and in test [2] were under 1000 nM and 1000 to 25000 nM, respectively.
`CNc1nc(Nc2ccc3[nH]ccc3c2)ncc1/C=C/C#N` [Compound 8m, 3-[2-(1H-Indol-5-ylamino)-4-(methylamino)pyrimidin-5-yl]acrylonitrile]: the 50% inhibitory concentration (IC50) in test [1] and in test [2] was under 1000 nM each time.
`N#C/C=C/c1cnc(Nc2ccc3[nH]ccc3c2)nc1NC1CCCC1` [Compound 8k, 3-[4-Cyclopentylamino-2-(1H-indol-5-ylamino)pyrimidin-5-yl]acrylonitrile]: the IC50 in test [1] is under 1000 nM; in test [2] it was 1000 to 25000 nM.
Consider `CN1CCN(c2ccc(N(C(=O)CCCC[C@@H]3SC[C@@H]4NC(=O)N[C@@H]43)c3ncc(/C=C/C#N)c(NC4CCCC4)n3)cc2)CC1` [Compound 8y, N-[5-(2-Cyanovinyl)-4-(cyclopentylamino)pyrimidin-2-yl]-N-[4-(4-methylpiperazin-1-yl)phenyl]-5-((3aS,4S,6aR)-2-oxohexahydro-1H-thieno[3,4-d]imidazol-4-yl)pentanamide], for which the IC50 in test [1] and in test [2] was 1000 to 25000 nM each time.
Consider `CN1CCN(c2ccc(Nc3ncc(/C=C/C#N)c(N4CCCC4)n3)cc2)CC1` [Compound 8w, 3-{2-[4-(4-Methylpiperazin-1-yl)phenylamino]-4-(pyrrolidin-1-yl)pyrimidin-5-yl}acrylonitrile], for which the IC50 in test [1] and in test [2] was 1000 to 25000 nM in each case.
As for `Cn1ccc(Nc2nc(Nc3ccc4[nH]ccc4c3)ncc2/C=C/S(=O)(=O)c2ccc(F)cc2F)n1` [Compound 15s, (E)-5-{2-[(2,4-Difluorophenyl)sulfonyl]vinyl}-N^2-(1H-indol-5-yl)-N^4-(1-methyl-1H-pyrazol-3-yl)pyrimidine-2,4-diamine], the 50% inhibitory concentration (IC50) in test [1] and in test [2] was 1000 to 25000 nM each time.
Consider `COc1ccc(Nc2ncc(/C=C/C#N)c(NC3CCCC3)n2)cc1` [Compound 8n, 3-{4-(Cyclopentylamino)-2-[(4-methoxyphenyl)amino]pyrimidin-5-yl)acrylonitrile], for which the IC50 in test [1] and in test [2] was 1000 to 25000 nM each time.
Regarding `CNc1nc(Nc2ccc3[nH]ncc3c2)ncc1/C=C/S(=O)(=O)c1ccc(F)cc1F` [Compound 15i, (E)-5-{2-[(2,4-Difluorophenyl)sulfonyl]vinyl}-N^2-(1H-indazol-5-yl)-N-methylpyrimidine-2,4-diamine], the IC50 in test [1] and in test [2] was 1000 to 25000 nM each time.
Take `CN1CCN(c2ccc(Nc3ncc(/C=C/C#N)c(N)n3)cc2)CC1` [Compound 8a, 3-{4-Amino-2-[4-(4-methylpiperazin-1-yl)phenylamino]pyrimidin-5-yl}acrylonitrile]: the half-maximal inhibitory concentration (IC50) in test [1] and in test [2] was 1000 to 25000 nM in each case.
Consider `N#C/C=C/c1cnc(N2CCOCC2)nc1NC1CCCC1` [Compound 8z, (E)-3-[4-(Cyclopentylamino)-2-morpholinopyrimidin-5-yl]acrylonitrile], for which the IC50 in test [1] and in test [2] was 1000 to 25000 nM throughout.
In the case of `COc1ccc(S(=O)(=O)/C=C/c2cnc(Nc3ccc4[nH]ccc4c3)nc2NC2CCCC2)cc1` [Compound 15k, (E)-N^4-Cyclopentyl-N^2-(1H-indol-5-yl)-5-{2-[(4-methoxyphenyl)sulfonyl]vinyl}pyrimidine-2,4-diamine], the IC50 in test [1] and in test [2] was 1000 to 25000 nM in each case.
As to `COc1ccc(S(=O)(=O)/C=C/c2cnc(Nc3ccc(N4CCN(C)CC4)cc3)nc2Nc2ccn(C)n2)cc1` [Compound 15q, (E)-5-{2-[(4-Methoxyphenyl)sulfonyl]vinyl}-N^4-(1-methyl-1H-pyrazol-3-yl)-N^2-[4-(4-methylpiperazin-1-yl)phenyl]pyrimidine-2,4-diamine], the figures for the IC50 in test [1] and in test [2] were under 1000 nM and 1000 to 25000 nM, respectively.
Take `CN1CCN(c2ccc(Nc3ncc(/C=C/C#N)c(NCC4CC4)n3)cc2)CC1` [Compound 8f, 3-{4-(Cyclopropylmethyl)amino-2-[4-(4-methylpiperazin-1-yl)phenylamino]pyrimidin-5-yl}acrylonitrile]: the half-inhibitory concentration (IC50) in test [1] and in test [2] was under 1000 nM in each case.
For the compound `COc1cc(N2CCN(C)CC2)ccc1Nc1ncc(/C=C/C#N)c(NC2CCCC2)n1` [Compound 8bb, (E)-3-[4-(Cyclopentylamino)-2-{[2-methoxy-4-(4-methylpiperazin-1-yl)phenyl]amino}pyrimidin-5-yl]acrylonitrile], the IC50 in test [1] and in test [2] was 1000 to 25000 nM in each case.
For `CNc1nc(Nc2ccc(N3CCN(C)CC3)cn2)ncc1/C=C/S(=O)(=O)c1ccc(F)cc1F` [Compound 15l, (E)-5-{2-[(2,4-Difluorophenyl)sulfonyl]vinyl}-N^4-methyl-N^2-[5-(4-methylpiperazin-1-yl)pyridin-2-yl]pyrimidine-2,4-diamine], the IC50 in test [1] and in test [2] was 1000 to 25000 nM throughout.
Turning to `CCN(c1nc(Nc2ccc(N3CCN(C)CC3)cc2)ncc1/C=C/C#N)C1CCCC1` [Compound 8x, 3-{4-(N-Cyclopentyl-N-ethylamino)-2-[4-(4-methylpiperazin-1-yl)phenylamino]pyrimidin-5-yl}acrylonitrile], the IC50 in test [1] and in test [2] was under 1000 nM throughout.
Regarding `CC(C)Nc1nc(Nc2ccc(N3CCN(C)CC3)cc2)ncc1/C=C/C#N` [Compound 8e, 3-{4-Isopropylamino-2-[4-(4-methylpiperazin-1-yl)phenylamino]pyrimidin-5-yl}acrylonitrile], the IC50 in test [1] and in test [2] was under 1000 nM in each case.

Usually IC50 stands for the midpoint of a concentration-inhibition curve. A low value points to greater potency.

The values above are taken from patent US9815847B2 (Icahn School of Medicine at Mount Sinai, priority 2013, dated 2017).
